Experimental data published in patent US20160213739A1, “TREATMENTS FOR DISORDERS USING GUANYLATE CYCLASE C AGONISTS” (Ironwood Pharmaceuticals, Inc., priority 2011, published 2016).
Positions of bridges follow the written chain, without caps; N, C: chain ends. Non-standard residues stand in square brackets, D forms with d. Residues, ends and D or L forms follow the SMILES beside them. pS = N[C@@H](COP(=O)(O)O)C(=O)O

Assays:
[1] = after oral administration at therapeutic dose levels; cited from earlier work
[2] = target: T1, Calf intestinal alkaline phosphatase (CIP) (Bos taurus, UniProt P19111); assay: Alkaline phosphatase reaction on peptide substrates; format: in vitro ADME; settings: for Dephospho (%) / Remaining (%): Alkaline phosphatase pH 8, 90 minutes at 37° C.
T1 construct: purchased New England BioLabs M0290S
T1 sequence (P19111 20-506): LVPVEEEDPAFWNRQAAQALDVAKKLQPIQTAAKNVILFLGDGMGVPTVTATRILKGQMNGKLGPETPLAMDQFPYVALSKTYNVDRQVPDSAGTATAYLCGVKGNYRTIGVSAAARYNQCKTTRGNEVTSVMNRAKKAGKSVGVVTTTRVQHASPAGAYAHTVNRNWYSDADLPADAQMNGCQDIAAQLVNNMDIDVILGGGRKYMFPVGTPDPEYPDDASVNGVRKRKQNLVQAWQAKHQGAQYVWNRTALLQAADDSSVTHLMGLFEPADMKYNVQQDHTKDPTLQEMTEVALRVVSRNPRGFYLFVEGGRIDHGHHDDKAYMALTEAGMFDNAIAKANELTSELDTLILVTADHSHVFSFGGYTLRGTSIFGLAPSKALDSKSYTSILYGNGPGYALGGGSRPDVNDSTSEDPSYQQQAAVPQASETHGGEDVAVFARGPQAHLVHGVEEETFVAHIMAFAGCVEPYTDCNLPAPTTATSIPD
Description: (§1) For the alkaline phosphatase reactions, peptide stocks were prepared at 1 mg/mL in 0.1 M Tris-HCl pH 8, which were stored at −20° C. until assays were conducted. For the acid phosphatase reactions, peptide stocks were prepared at 1 mg/mL in 50 mM sodium phosphate pH 6, which was stored at −20° C. until assays were conducted.
Calf intestinal alkaline phosphatase (CIP) was obtained from New England BioLabs, Ipswich, Mass. Cat # M0290S. The CIP reaction solution was prepared by dilution with buffer (50 mM KCl, 10 mM Tris-HCl pH 8, 1 mM MgCl2, 50% glycerol) to 0.5 units/4. The alkaline phosphatase reaction solutions were assembled in 20 μL quantities containing:
2 μL 10×CIP buffer (1M NaCl, 500 mM Tris-HCl pH 8, 100 mM MgCl2)
2 μL peptide stock (1 mg/mL)
4 μL alkaline phosphatase (0, 0.5 or 2 units)
The reaction solutions were mixed gently and incubated for 90 minutes at 37° C. These reaction solutions were stored at −20° C. until analysis. For analysis, the reaction solutions were diluted from 7.5 μL of CIP treated peptide to 50 μL with 0.1% formic acid in water to a final concentration of 10 μM.
Control reactions were assembled for enzyme activity containing 10 mM p-nitrophenylphosphate in place of peptide. After incubation, the reactions were diluted with 0.1 mL of 100 mM borate buffer pH 9 and read at the absorbance of 405 nm to monitor p-nitrophenol appearance.

[3] = In vitro metabolism in mouse jejunum loop fluid; format: in vitro ADME; settings: 37° C.; for metabolism in the control reaction: control reaction (1 M Tris-HCl), 120 minute incubation
Description: The purpose of this study was to determine the stability of phosphorylated peptides in mouse jejunal loop fluid. […] The isotopically labeled peptide 2 was synthesized with ^13C, ^15N-labeled alanine and leucine (i.e., with a sequence CCpS[^13C6, ^15N]LCCNP[^13C6, ^15N]ACTGC).
Each peptide was synthesized by American Peptide Company, Inc., and was stored desiccated at −20° C. A 1 mg/mL solution for each of the non-labeled peptides was prepared in 1 M tris (hydroxymethyl) aminomethane hydrochloride (Tris-HCl), pH 8 just prior to conducting the mouse intestinal loop fluid assay. A 500 ng/mL solution of ^13C, ^15N-labeled peptide 2 was prepared in 0.1% formic acid in water and was utilized to dilute the jejunum samples for post-assay LC-MS/MS analysis.
To collect the fluid, mice were fasted overnight with full access to water. They were then anesthetized with isofluorane for surgery and subjected to laparotomy in which the small intestine was exteriorized. Jejunum loops of 3 to 4 cm in length were made with sutures starting at 7 cm from the pyloric sphincter of the stomach. Once the loops were formed, they were injected with 200 μL of phosphate buffered saline (PBS) buffer (10 mM, pH 7.4). The abdominal wall and skin of the animals were then sutured, and the animals were allowed to recover for 30 minutes. Following recovery, the animals were sacrificed, the loops were then excised and the fluid inside was recovered and stored at −80° C. until use.
For each peptide, 254 of the 1 mg/mL peptide stock solution was added to 25 of 1 M Tris-HCl and 25 μL of 10× calf intestinal phosphatase (CIP) buffer containing 500 mM Tris-HCl, 1 M sodium chloride (NaCl), […] (MgCl2), pH 8. The reactions were initiated by adding 175 pit of the mouse jejunum loop fluid or 175 μL of the 1 M Tris-HCl pH8 buffer for the control reactions. The final concentration of each peptide was 100 μg/mL. The reactions were continuously mixed and maintained at 37° C. on a plate shaker. At 0, 2, 5, 10, 20, 30, 60, 90 and 120 minutes after adding the mouse intestinal loop fluid, a 25 μL aliquot was taken and added to 25 μL of 4° C. 12% trichloroacetic acid to stop the reaction. An additional 200 μL of 0.1% formic acid in water was added to these reactions for dilution purposes. These samples were then further diluted by taking 20 μL of each sample and adding it to 480 μL of 0.1% formic acid in water containing 500 ng/mL of the internal standard ^13C, ^15N-labeled peptide 2.
All samples were analyzed using an Applied Biosystems/MDS SCIEX API 4000 triple quadrupole mass spectrometer equipped with a high-performance liquid chromatography (HPLC) system. The mass spectrometer was operated in multiple reaction monitoring (MRM) mode, with resolution set to 1.2 Da.
The LC-MS/MS data were processed using Analyst version 1.4.2 software (Applied Biosystems/MDS SCIEX). The peak area ratio (ratio of analyte peak area to internal standard peak area) was used to calculate the percent remaining of each peptide.

[4] = target: T2, human prostate acid phosphatase (HuPrAP) (Homo sapiens, UniProt P15309); assay: Acid phosphatase reaction, human prostate acid phosphatase; format: in vitro ADME; settings: Human prostatic acid phosphatase pH 5, 90 minutes at 37° C.
T2 construct: purchased MP Biochemicals 153872
T2 sequence (P15309 33-386): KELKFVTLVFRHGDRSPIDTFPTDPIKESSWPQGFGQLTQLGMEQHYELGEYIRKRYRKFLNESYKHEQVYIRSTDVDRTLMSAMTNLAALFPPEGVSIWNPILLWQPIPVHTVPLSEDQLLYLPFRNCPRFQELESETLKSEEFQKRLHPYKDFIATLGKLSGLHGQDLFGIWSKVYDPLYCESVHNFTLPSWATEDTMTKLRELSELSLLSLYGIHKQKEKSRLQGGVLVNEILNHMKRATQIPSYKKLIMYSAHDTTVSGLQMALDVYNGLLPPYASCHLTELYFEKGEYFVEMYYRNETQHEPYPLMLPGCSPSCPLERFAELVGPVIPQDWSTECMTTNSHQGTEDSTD
Description: as §1
(§2) Potato acid phosphatase (PoAP) was obtained from Sigma, St. Louis, Miss. Cat #P1146 and human prostate acid phosphatase (HuPrAP) was obtained from MP Biochemicals, Solon, Ohio. Cat #153872. The acid phosphatases were dissolved to provide a solution containing 0.5 units AP/4 using 50 mM sodium acetate pH 5, 0.2 mM MgCl2. The acid phosphatase reactions were assembled in 20 μL quantities containing: • 2 μL 10× acid phosphatase buffer (500 mM sodium acetate pH 5, 2 mM MgCl2) • 2 μL peptide stock (1 mg/mL) • 12 μL H2O • 4 μL acid phosphatase (0.5 or 2 units)
(§3) The reaction solutions were mixed gently and incubated for 90 minutes at 37° C. The reaction solutions were stored at −20° C. for later analysis. For analysis, 7.5 μL acid phosphatase reactions were diluted to 50 μL with 0.1% formic acid in water to a final concentration of 10 μM. The control reactions for enzyme activity were assembled and diluted to 10 mM p-nitrophenylphosphate in place of peptide. After incubation, the reactions were diluted with 0.1 mL of 100 mM borate buffer pH 9 and read at the absorbance of 405 nm to monitor p-nitrophenol appearance.

[5] = tested on: Potato acid phosphatase (PoAP); assay: Acid phosphatase reaction, potato acid phosphatase; format: in vitro ADME; settings: Potato acid phosphatase pH 5, 90 minutes at 37° C.
Description: as §1, §2, §3

SMILES | metabolism in the control reaction [3] | degradation in mouse intestinal fluid compared with peptide 2 [3] | Dephospho (%) [2] | Dephospho (%) [4] | Remaining (%) [2] | Dephospho (%) [5] | other results
C[C@@H]1NC(=O)[C@@H]2CCCN2C(=O)[C@H](CC(N)=O)NC(=O)[C@@H]2CSSC[C@H](N)C(=O)N[C@H]3CSSC[C@H](NC1=O)C(=O)N[C@@H]([C@@H](C)O)C(=O)NCC(=O)N[C@H](C(=O)N[C@@H](Cc1ccc(O)cc1)C(=O)O)CSSC[C@H](NC(=O)[C@H](Cc1ccc(O)cc1)NC(=O)[C@H](CCC(=O)O)NC3=O)C(=O)N2 [linaclotide, Linaclotide] (H-CCEYCCNPACTGCY-OH; disulfide 1-6, 2-10, 5-13) |  |  |  |  |  |  | levels seen systemically [1]: no detectable levels
CC(C)C[C@@H]1NC(=O)[C@H](CCC(=O)O)NC(=O)[C@@H]2CSSC[C@@H]3NC(=O)[C@H](C)NC(=O)[C@@H]4CCCN4C(=O)[C@H](CC(N)=O)NC(=O)[C@H](CSSC[C@H](N)C(=O)N2)NC(=O)[C@H](CSSC[C@@H](C(=O)N[C@@H](Cc2ccc(O)cc2)C(=O)O)NC(=O)CNC(=O)[C@H]([C@@H](C)O)NC3=O)NC1=O [Peptide 3, CCELCCNPACTGCY] (H-CCELCCNPACTGCY-OH; disulfide 1-6, 2-10, 5-13 (inferred); N-terminus and C-terminus assumed) | not metabolized | degraded faster |  |  |  |  | Effect of CIP treatment on the peptide (LC-MS) ([2]; with and without calf intestinal alkaline phosphatase, data not shown): not affected; peptide detected after 90 minutes ([3]; mouse jejunum fluid, 100 μg/mL peptide): not detected
CC(C)C[C@@H]1NC(=O)[C@H](COP(=O)(O)O)NC(=O)[C@@H]2CSSC[C@@H]3NC(=O)[C@H](C)NC(=O)[C@@H]4CCCN4C(=O)[C@H](CC(N)=O)NC(=O)[C@H](CSSC[C@H](N)C(=O)N2)NC(=O)[C@H](CSSC[C@@H](C(=O)O)NC(=O)CNC(=O)[C@H]([C@@H](C)O)NC3=O)NC1=O [Peptide 2, CCpSLCCNPACTGC] (H-CC[pS]LCCNPACTGC-OH; disulfide 1-6, 2-10, 5-13 (inferred); N-terminus and C-terminus assumed) | not metabolized |  | 100% | 4.1% |  |  | metabolite formed ([3]; mouse jejunum fluid, increased for the first 20 minutes then slow decrease): dephospho-peptide 2
CC(C)C[C@@H]1NC(=O)[C@H](COP(=O)(O)O)NC(=O)[C@@H]2CSSC[C@@H]3NC(=O)[C@H](C)NC(=O)[C@@H]4CCCN4C(=O)[C@H](CC(N)=O)NC(=O)[C@H](CSSC[C@H](N)C(=O)N2)NC(=O)[C@H](CSSC[C@@H](C(=O)N[C@@H](Cc2ccc(O)cc2)C(=O)O)NC(=O)CNC(=O)[C@H]([C@@H](C)O)NC3=O)NC1=O [Peptide 1, CCpSLCCNPACTGCY] (H-CC[pS]LCCNPACTGCY-OH; disulfide 1-6, 2-10, 5-13 (inferred); N-terminus and C-terminus assumed) |  |  | 100% | 6.2% | 0% | 22.1% | 
CC(C)C[C@@H]1NC(=O)[C@H](CO)NC(=O)[C@@H]2CSSC[C@@H]3NC(=O)[C@H](C)NC(=O)[C@@H]4CCCN4C(=O)[C@H](CC(N)=O)NC(=O)[C@H](CSSC[C@H](N)C(=O)N2)NC(=O)[C@H](CSSC[C@@H](C(=O)O)NC(=O)CNC(=O)[C@H]([C@@H](C)O)NC3=O)NC1=O [Dephospho-Peptide 2, CCSLCCNPACTGC] (H-CCSLCCNPACTGC-OH; disulfide 1-6, 2-10, 5-13 (inferred); N-terminus and C-terminus assumed) | not metabolized | degraded faster |  |  |  |  | 
O=[N+]([O-])c1ccc(OP(=O)(O)O)cc1 [p-nitrophenylphosphate] |  |  | 100% | 100% | 0% | 100% | Remaining (%) [5]: 0%; Remaining (%) [4]: 0%
